For assay [1], the system named is MOLM-13 cells (FLT3-ITD-/+). As to the kind of experiment: Inhibition of cell proliferation by MTT experiment, MOLM-13. Type of assay: cell-based, human. The settings on record: Homo sapiens, MOLM-13; MTT, 72 h; read-out: IC50 value on cell proliferation inhibition, MOLM-13 FLT3-ITD-/+. The source says: (§1) MV4-11, MOLM-13 and SET-2 were used to determine the influence of the test compound of the present invention on the activity of cancer cells. MV4-11 and MOLM-13 were human leukemia cell lines from American Type Culture Collection (ATCC), expressing FLT3 receptor and containing FLT3-ITD mutation; and SET-2 was a primary thrombocythemia cell purchased from Chengdu Bowerston Biotechnology Co., Ltd., China, continuously expressing JAK2 receptor and containing the mutation of V617F.
(§2) MV4-11, MOLM-13 and SET-2 cells were filled in a 96-well petri dish with 100 μL IMDM as the medium, containing 10% fetal bovine serum (100 mL/bottle, purchased from Grassland Lvye Bio-Engineering Materials Co., Ltd. and cryopreserved at −20° C.), and with 10,000-15,000 cells in each well. […] In each group, 3-5 replicate wells were set and incubated in 5% CO2 at 37° C. for 72 h. At the endpoint, 20 μL MTT (5 mg/mL) was added to each well, and the cells were incubated for another 1-3 h.
(§3) After the inhibition rate of each concentration of compound on cell proliferation activity was calculated, the dose-response curve and IC50 value were fitted by Graphpad prism software according to the compound treatment concentrations and corresponding inhibition rates.

The subject of assay [2] is SET-2 cells (JAK2 V617F). As to the kind of experiment: Inhibition of cell proliferation by MTT experiment, SET-2. The format is cell-based. The note with it: Homo sapiens, SET-2; MTT, 72 h; read-out: IC50 value on cell proliferation inhibition, SET-2 (V617F).
From the text: as §1, §2, §3

Assay [3] has as its target T1, FLT3 (Homo sapiens, UniProt P36888).
T1 construct: purchased Eurofins
T1 sequence (P36888 27-993): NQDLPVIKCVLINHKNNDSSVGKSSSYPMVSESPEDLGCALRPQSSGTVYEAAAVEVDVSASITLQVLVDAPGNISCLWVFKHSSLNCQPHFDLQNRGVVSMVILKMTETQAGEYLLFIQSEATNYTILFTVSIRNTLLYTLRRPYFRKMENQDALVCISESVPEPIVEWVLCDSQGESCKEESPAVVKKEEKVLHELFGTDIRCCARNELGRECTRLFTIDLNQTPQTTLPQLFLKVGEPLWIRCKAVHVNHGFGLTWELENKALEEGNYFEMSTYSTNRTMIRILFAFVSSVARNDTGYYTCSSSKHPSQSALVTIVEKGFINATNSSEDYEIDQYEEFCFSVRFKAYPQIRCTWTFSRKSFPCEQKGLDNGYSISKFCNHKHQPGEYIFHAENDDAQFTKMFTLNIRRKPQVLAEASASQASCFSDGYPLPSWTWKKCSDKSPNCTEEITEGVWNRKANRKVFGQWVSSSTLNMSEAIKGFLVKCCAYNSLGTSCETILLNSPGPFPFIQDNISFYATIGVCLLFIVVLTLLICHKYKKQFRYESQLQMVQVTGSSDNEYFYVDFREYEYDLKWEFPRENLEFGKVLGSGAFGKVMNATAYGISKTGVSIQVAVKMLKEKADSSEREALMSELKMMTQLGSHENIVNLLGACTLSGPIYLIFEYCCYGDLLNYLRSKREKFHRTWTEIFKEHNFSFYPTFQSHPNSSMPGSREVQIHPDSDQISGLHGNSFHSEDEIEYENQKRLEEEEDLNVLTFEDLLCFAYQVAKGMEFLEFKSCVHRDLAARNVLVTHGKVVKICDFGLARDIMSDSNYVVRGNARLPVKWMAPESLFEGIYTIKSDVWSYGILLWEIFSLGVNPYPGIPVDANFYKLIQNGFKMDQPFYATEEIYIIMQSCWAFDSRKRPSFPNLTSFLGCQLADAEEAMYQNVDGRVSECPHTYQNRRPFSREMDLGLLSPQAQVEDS
In words: In vitro kinase activity experiment, FLT3. The format is biochemical. The settings on record: 40 min; inhibition rate of enzyme at 500 nM; measured by Eurofins; read-out: Kinase activity @ 500 nM (%) FLT3. On the procedure:
(§4) Buffer solution ([…], pH 7.0, 0.2 mm EDTA, 10 mM mncl2), kinase to be tested, substrate of kinase to be tested, 10 mM magnesium acetate and γ33P-ATP solution, and compounds with different concentrations were added to a reaction tube in turn, then MgATP was added to initiate the enzyme reaction process, and incubated at room temperature for 40 min. Then, the reaction was terminated with 5 μl of […], and 10 μl of the reaction solution was titrated onto the Filtermat A membrane, washed with 75 mM phosphate solution for three times, each time for 5 min., and then washed with methanol once. Finally, the Filtermat A membrane was dried and the scintillation count was carried out.

The target in assay [4] is T2, JAK2 (Homo sapiens, UniProt O60674).
T2 construct: purchased Eurofins
As to the kind of experiment: In vitro kinase activity experiment, JAK2. The format is biochemical. The settings on record: inhibition rate of enzyme at 500 nM; measured by Eurofins. On the procedure: as §4

Assay [5] deals with MV4-11 cells (FLT3-ITD+/+). In words: Inhibition of cell proliferation by MTT experiment, MV4-11. Type of assay: cell-based, human. The note with it: Homo sapiens, MV4-11; MTT, 72 h; read-out: IC50 value on cell proliferation inhibition, MV4-11 FLT3-ITD+/+.
From the text: as §1, §2, §3

Some results are limits rather than exact numbers.

T2 sequence (O60674 whole entry): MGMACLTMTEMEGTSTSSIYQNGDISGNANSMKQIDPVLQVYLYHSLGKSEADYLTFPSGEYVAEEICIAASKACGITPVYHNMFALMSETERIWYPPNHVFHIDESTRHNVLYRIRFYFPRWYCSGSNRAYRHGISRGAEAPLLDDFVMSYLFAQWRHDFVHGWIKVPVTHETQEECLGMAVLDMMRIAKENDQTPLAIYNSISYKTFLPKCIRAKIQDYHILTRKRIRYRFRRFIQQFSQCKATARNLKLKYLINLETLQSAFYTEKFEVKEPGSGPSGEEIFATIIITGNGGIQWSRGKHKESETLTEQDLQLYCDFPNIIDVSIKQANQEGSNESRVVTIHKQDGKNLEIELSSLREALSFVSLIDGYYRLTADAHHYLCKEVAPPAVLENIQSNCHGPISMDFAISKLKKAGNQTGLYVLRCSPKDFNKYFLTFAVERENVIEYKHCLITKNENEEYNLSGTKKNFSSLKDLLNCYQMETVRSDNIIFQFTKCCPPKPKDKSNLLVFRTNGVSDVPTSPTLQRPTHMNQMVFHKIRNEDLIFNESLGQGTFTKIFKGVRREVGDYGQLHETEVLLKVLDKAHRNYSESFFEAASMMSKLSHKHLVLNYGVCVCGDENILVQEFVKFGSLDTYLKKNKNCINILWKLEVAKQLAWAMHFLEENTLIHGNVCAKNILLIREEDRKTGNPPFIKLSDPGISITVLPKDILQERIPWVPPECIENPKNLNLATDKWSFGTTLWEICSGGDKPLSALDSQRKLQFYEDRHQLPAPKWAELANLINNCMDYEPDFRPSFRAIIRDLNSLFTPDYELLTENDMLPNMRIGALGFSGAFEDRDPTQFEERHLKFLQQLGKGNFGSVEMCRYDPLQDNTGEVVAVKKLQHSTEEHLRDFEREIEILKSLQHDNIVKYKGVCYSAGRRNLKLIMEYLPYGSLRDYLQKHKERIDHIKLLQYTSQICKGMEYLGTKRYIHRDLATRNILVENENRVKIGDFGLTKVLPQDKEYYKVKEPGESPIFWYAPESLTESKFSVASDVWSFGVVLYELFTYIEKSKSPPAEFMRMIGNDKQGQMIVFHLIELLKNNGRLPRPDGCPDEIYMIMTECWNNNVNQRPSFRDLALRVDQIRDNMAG

With `CCN1CCN(c2ccc(Nc3ncc(F)c(-c4cnn(C(C)C)c4)n3)cc2F)CC1` [CLJ-26, 5-fluoro-N-(3-fluoro-4-(4-ethylpiperazine-1-yl)phenyl)-4-(1-isopropyl-1H-pyrazole-4-yl) pyrimidine-2-amine], the IC50 in assay [1], in assay [2] and in assay [5] was above 1000 nM in each case. Besides, the inhibition at 0.5 µM in assay [3] came out at 30%. For the same molecule, in assay [4], the “Kinase activity @ 500 nM (%) JAK2” value was found to be 19%.

On to `CC(C)n1cc(-c2nc(Nc3ccc(N4CCCC4)c(F)c3)ncc2F)cn1` [CLJ-27, 5-fluoro-N-(3-fluoro-4-(pyrrolidine-1-yl)phenyl)-4-(1-isopropylpyrazol-4-yl) pyrimidine-2-amine], for which the IC50 is above 1000 nM in assay [1], above 1000 nM in assay [2] and 100 to 1000 nM in assay [5]. Moreover, the inhibition at 0.5 µM in assay [3] turned out to be 24%. In addition, the “Kinase activity @ 500 nM (%) JAK2” value in assay [4] is on record as 34%.

For the molecule `COc1cc(Nc2ncc(F)c(-c3cnn(C(C)C)c3)n2)ccc1N1CCN(C)CC1` [CLJ-28, 5-fluoro-N-(3-methoxy-4-(4-methylpiperazine-1-yl)phenyl)-4-(1-isopropyl-1H-pyrazol-4-yl) pyrimidine-2-amine], the IC50 in assay [1], in assay [2] and in assay [5] was above 1000 nM each time. Moreover, the inhibition at 0.5 µM in assay [3] was 21%. Moreover, the “Kinase activity @ 500 nM (%) JAK2” value in assay [4] is 25%.

Regarding `CCN1CCN(c2ccc(Nc3ncc(C)c(-c4cnn(C(C)C)c4)n3)cc2F)CC1` [CLJ-30], the IC50 in assay [1] is 100 to 1000 nM; in assay [2], 100 to 1000 nM; in assay [5], 10 to 100 nM. Also, the inhibition at 0.5 µM in assay [3] was 96%. Further, the “Kinase activity @ 500 nM (%) JAK2” value in assay [4] was 89%.

As for `CC(C)n1cc(-c2nc(Nc3ccc(N4CCN(C5CCN(C)CC5)CC4)cc3)ncc2F)cn1` [CLJ-31, 5-fluoro-N-(4-(4-(1-methylpiperidine-4-yl)piperazine-1-yl)phenyl)-4-(1-isopropyl-1H-pyrazole-4-yl) pyrimidine-2-amine], the IC50 in assay [1], in assay [2] and in assay [5] was above 1000 nM in each case. Moreover, the inhibition at 0.5 µM in assay [3] is 18%. In addition, the “Kinase activity @ 500 nM (%) JAK2” value in assay [4] was found to be 25%.

As to `CC(C)n1cc(-c2nc(Nc3ccc(N4CCN(C5CCN(C)CC5)CC4)c(F)c3)ncc2F)cn1` [CLJ-32, 5-fluoro-N-(3-fluoro-4-(4-(1-methylpiperidine-4-yl)piperazine-1-yl)phenyl)-4-(1-isopropyl-1H-pyrazole-4-yl) pyrimidine-2-amine], the IC50 in assay [1] lay in the range of 100 to 1000 nM; in assay [2], 100 to 1000 nM; in assay [5] it was 10 to 100 nM. Besides, the inhibition at 0.5 µM in assay [3] was determined as 95%. Moreover, the “Kinase activity @ 500 nM (%) JAK2” value in assay [4] was found to be 90%.

Consider `CC(C)n1cc(-c2nc(Nc3ccc(N4CCC(N5CCCCC5)CC4)c(F)c3)ncc2F)cn1` [CLJ-33], for which the IC50 in assay [1], in assay [2] and in assay [5] was above 1000 nM each time. The inhibition at 0.5 µM in assay [3] was found to be 23%. Also, the “Kinase activity @ 500 nM (%) JAK2” value in assay [4] is reported as 34%.

Consider `Cc1nn(C(C)C)cc1-c1nc(Nc2ccc(N3CCN(C)CC3)c(F)c2)ncc1F` [CLJ-34], for which the IC50 is 100 to 1000 nM in assay [1], 100 to 1000 nM in assay [2] and 10 to 100 nM in assay [5]. Also, the inhibition at 0.5 µM in assay [3] was found to be 95%. In assay [4], the “Kinase activity @ 500 nM (%) JAK2” value is 93%.

With `Cc1c(-c2nc(Nc3ccc(N4CCN(C)CC4)c(F)c3)ncc2F)cnn1C(C)C` [CLJ-35], the IC50 lay within 100 to 1000 nM in assay [1], 100 to 1000 nM in assay [2] and 10 to 100 nM in assay [5]. Moreover, the inhibition at 0.5 µM in assay [3] stood at 91%. In assay [4], the “Kinase activity @ 500 nM (%) JAK2” value was 92%.

Consider `CC(C)n1cc(-c2nc(Nc3ccc(N4CCC(N(C)C)CC4)c(F)c3)ncc2F)cn1` [CLJ-36, 5-fluoro-N-(3-fluoro-4-(4-dimethylaminopiperidine-1-yl)phenyl)-4-(1-isopropyl-1H-pyrazole-4-yl) pyrimidine-2-amine], for which the IC50 in assay [1] is 10 to 100 nM; in assay [2] it was 100 to 1000 nM; in assay [5], 10 to 100 nM. Besides, in assay [3], the inhibition at 0.5 µM was 99%. The “Kinase activity @ 500 nM (%) JAK2” value in assay [4] was found to be 97%.

As for `COc1cc(Nc2ncc(F)c(-c3cnn(C(C)C)c3)n2)ccc1N1CCC(N(C)C)CC1` [CLJ-37, 5-fluoro-N-(3-methoxy-4-(4-dimethylaminopiperidine-1-yl)phenyl)-4-(1-isopropyl-1H-pyrazole-4-yl) pyrimidine-2-amine], the IC50 in assay [1] was in the range of 100 to 1000 nM; in assay [2] it was 100 to 1000 nM; in assay [5] it was 10 to 100 nM. The inhibition at 0.5 µM in assay [3] amounted to 97%. Moreover, the “Kinase activity @ 500 nM (%) JAK2” value in assay [4] came to 98%.

As for `COc1cc(Nc2ncc(C)c(-c3cnn(C(C)C)c3)n2)ccc1N1CCC(N(C)C)CC1` [CLJ-39, 5-methyl-N-(3-methoxy-4-(4-dimethylaminopiperidine-1-yl)phenyl)-4-(1-isopropyl-1H-pyrazole-4-yl) pyrimidine-2-amine], the IC50 in assay [1] fell in the range of 100 to 1000 nM; in assay [2], 100 to 1000 nM; in assay [5], 10 to 100 nM. Further, the inhibition at 0.5 µM in assay [3] was determined as 90%. The “Kinase activity @ 500 nM (%) JAK2” value in assay [4] is on record as 94%.

In the case of `Cc1cnc(Nc2ccc(N3CCN(C(=O)CO)CC3)c(F)c2)nc1-c1cnn(C(C)C)c1` [CLJ-40, 5-methyl-N-(3-fluoro-4-(4-hydroxyacetylpiperazine-1-yl)phenyl)-4-(1-isopropyl-1H-pyrazole-4-yl) pyrimidine-2-amine], the values for the IC50 in assay [1], in assay [2] and in assay [5] were 10 to 100 nM, 100 to 1000 nM and 10 to 100 nM, respectively. Besides, the inhibition at 0.5 µM in assay [3] is 94%. Moreover, the “Kinase activity @ 500 nM (%) JAK2” value in assay [4] was 96%.

Consider `Cc1cnc(Nc2ccc(N3CCC(N(C)C(=O)CO)CC3)c(F)c2)nc1-c1cnn(C(C)C)c1` [CLJ-41, N-(1-(2-fluoro-4-((4-(1-isopropyl-1H-pyrazol-4-yl)-5-methylpyrimidine-2-yl)amino)phenyl)piperidine-4-yl)-2-hydroxy-N-methylacetamide], for which the IC50 lay within 100 to 1000 nM in assay [1], 100 to 1000 nM in assay [2] and 10 to 100 nM in assay [5]. Besides, the inhibition at 0.5 µM in assay [3] was determined as 97%. For the same molecule, in assay [4], the “Kinase activity @ 500 nM (%) JAK2” value is given as 102%.

In the case of `Cc1cnc(Nc2ccc(N3CCC(CO)CC3)c(F)c2)nc1-c1cnn(C(C)C)c1` [CLJ-42, 5-methyl-N-(3-fluoro-4-(4-hydroxymethylpiperidine-1-yl)phenyl)-4-(1-isopropyl-1H-pyrazole-4-yl) pyrimidine-2-amine], the figures for the IC50 in assay [1], in assay [2] and in assay [5] were 100 to 1000 nM, 100 to 1000 nM and 10 to 100 nM, respectively. Moreover, the inhibition at 0.5 µM in assay [3] was found to be 95%. Moreover, the “Kinase activity @ 500 nM (%) JAK2” value in assay [4] stood at 100%.

For the origin of these results see patent publication US12428394B2, “2,4-disubstituted pyrimidine derivative, preparation method therefor and use thereof” (CHENGDU ZENITAR BIOMEDICAL TECHNOLOGY CO., LTD., priority 2019, dated 2025).
